Experimental findings from ChEMBL document CHEMBL3132769, “Fragment growing to retain or alter the selectivity of anchored kinase hinge-binding fragments” (Medchemcomm, 2014) are described below.

The target in assay [1] is T1, Serine/threonine-protein kinase Chk1 (Homo sapiens) (UniProt O14757).
T1 sequence (whole entry): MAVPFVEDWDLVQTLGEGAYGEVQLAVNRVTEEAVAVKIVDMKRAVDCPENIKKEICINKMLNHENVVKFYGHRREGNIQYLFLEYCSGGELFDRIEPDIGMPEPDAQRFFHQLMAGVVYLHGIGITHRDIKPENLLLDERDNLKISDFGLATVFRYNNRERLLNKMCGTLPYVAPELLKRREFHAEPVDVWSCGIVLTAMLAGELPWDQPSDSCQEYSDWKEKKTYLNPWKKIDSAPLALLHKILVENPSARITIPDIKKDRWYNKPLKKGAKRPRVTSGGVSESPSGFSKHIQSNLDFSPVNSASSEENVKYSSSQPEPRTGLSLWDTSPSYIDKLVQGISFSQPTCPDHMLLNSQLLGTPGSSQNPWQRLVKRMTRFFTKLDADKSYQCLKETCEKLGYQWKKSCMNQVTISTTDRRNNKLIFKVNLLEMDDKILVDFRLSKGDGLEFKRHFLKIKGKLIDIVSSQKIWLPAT
The assay is described as follows: Inhibition of human full length CHK1 expressed in baculovirus assessed as substrate phosphorylation using fluorescence-labelled peptides as substrate at 0.2 uM after 90 mins by microfluidic peptide phosphorylation assay.

Assay [2] has as its target Protein kinase C theta type (Homo sapiens) (UniProt Q04759). Kind of assay: Inhibition of human truncated PKC theta expressed in baculovirus assessed as substrate phosphorylation using fluorescence-labelled peptides as substrate at 0.1 uM after 90 mins by microfluidic peptide phosphorylation assay.
For assay [3], the target named is T2, cGMP-dependent protein kinase 1 (Homo sapiens) (UniProt Q13976).
T2 sequence (whole entry): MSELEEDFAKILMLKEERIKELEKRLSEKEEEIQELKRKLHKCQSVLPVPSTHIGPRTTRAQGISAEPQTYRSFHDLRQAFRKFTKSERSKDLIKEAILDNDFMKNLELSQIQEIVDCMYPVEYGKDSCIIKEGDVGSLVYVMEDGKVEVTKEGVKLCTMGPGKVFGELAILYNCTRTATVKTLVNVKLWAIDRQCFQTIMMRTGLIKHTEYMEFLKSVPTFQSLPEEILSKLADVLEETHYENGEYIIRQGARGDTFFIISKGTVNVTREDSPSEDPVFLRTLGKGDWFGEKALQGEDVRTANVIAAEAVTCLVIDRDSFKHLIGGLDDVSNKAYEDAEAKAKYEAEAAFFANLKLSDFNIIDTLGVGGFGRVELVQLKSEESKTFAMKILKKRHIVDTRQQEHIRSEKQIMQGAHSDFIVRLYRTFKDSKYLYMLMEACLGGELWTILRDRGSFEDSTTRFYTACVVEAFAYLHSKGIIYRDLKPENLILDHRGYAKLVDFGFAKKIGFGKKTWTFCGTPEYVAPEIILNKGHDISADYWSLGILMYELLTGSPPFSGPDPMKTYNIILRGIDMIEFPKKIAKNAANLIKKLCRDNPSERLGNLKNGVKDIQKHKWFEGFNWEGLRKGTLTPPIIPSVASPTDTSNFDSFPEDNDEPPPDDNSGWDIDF
The assay is described as follows: Inhibition of human full length PKG-1a expressed in baculovirus assessed as substrate phosphorylation using fluorescence-labelled peptides as substrate at 420 uM after 90 mins by microfluidic peptide phosphorylation assay.

Assay [4] has as its target Ribosomal protein S6 kinase alpha-5 (Homo sapiens) (UniProt O75582). Kind of assay: Inhibition of human full length MSK1 expressed in baculovirus assessed as substrate phosphorylation using fluorescence-labelled peptides as substrate at 95 uM after 90 mins by microfluidic peptide phosphorylation assay.
The target of assay [5] is Receptor-type tyrosine-protein kinase FLT3 (Homo sapiens) (UniProt P36888). The assay is described as follows: Inhibition of human FLT3 catalytic domain expressed in baculovirus assessed as substrate phosphorylation using fluorescence-labelled peptides as substrate at 9 uM after 90 mins by microfluidic peptide phosphorylation assay.
Assay [6] has as its target Fibroblast growth factor receptor 4 (Homo sapiens) (UniProt P22455). The assay is described as follows: Inhibition of human FGFR4 catalytic domain expressed in baculovirus assessed as substrate phosphorylation using fluorescence-labelled peptides as substrate at […] after 90 mins by microfluidic peptide phosphorylation assay.
The target of assay [7] is Tyrosine-protein kinase BTK (Homo sapiens) (UniProt Q06187). Kind of assay: Inhibition of human full length BTK expressed in baculovirus assessed as substrate phosphorylation using fluorescence-labelled peptides as substrate at 1000 uM after 90 mins by microfluidic peptide phosphorylation assay.
Assay [8] deals with Ribosomal protein S6 kinase alpha-1 (Homo sapiens) (UniProt Q15418). Kind of assay: Inhibition of human full length RSK1 expressed in baculovirus assessed as substrate phosphorylation using fluorescence-labelled peptides as substrate at 1000 uM after 90 mins by microfluidic peptide phosphorylation assay.
The target of assay [9] is Ribosomal protein S6 kinase alpha-3 (Homo sapiens) (UniProt P51812). Kind of assay: Inhibition of human full length RSK2 expressed in baculovirus assessed as substrate phosphorylation using fluorescence-labelled peptides as substrate at 0.06 uM after 90 mins by microfluidic peptide phosphorylation assay.
Assay [10] deals with T3, Serine/threonine-protein kinase BRSK2 (Homo sapiens) (UniProt Q8IWQ3).
T3 sequence (whole entry): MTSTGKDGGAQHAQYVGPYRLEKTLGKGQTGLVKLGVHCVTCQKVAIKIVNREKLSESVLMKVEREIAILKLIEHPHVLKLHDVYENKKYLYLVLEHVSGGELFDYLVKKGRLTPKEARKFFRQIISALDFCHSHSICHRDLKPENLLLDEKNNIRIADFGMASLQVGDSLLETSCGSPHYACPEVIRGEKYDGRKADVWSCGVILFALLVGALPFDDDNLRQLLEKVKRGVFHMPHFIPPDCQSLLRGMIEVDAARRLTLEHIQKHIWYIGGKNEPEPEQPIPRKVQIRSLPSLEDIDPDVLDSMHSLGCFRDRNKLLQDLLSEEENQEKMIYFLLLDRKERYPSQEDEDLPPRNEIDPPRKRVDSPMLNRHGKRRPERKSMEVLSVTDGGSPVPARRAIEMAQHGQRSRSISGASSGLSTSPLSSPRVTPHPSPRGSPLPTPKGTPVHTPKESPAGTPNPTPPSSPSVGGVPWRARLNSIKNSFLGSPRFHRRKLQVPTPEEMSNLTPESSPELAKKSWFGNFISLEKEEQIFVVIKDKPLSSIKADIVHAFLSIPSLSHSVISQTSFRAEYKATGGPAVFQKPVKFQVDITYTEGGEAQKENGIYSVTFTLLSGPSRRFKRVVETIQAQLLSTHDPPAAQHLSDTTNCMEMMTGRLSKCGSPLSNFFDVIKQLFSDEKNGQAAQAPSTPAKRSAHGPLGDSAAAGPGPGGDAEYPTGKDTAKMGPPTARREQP
Kind of assay: Inhibition of human truncated BRSK2 expressed in baculovirus assessed as substrate phosphorylation using fluorescence-labelled peptides as substrate at 2 uM after 90 mins by microfluidic peptide phosphorylation assay.

The species named for assay [11] is Homo sapiens. The assay is described as follows: Inhibition of human P70S6K catalytic domain expressed in baculovirus assessed as substrate phosphorylation using fluorescence-labelled peptides as substrate at 70 uM after 90 mins by microfluidic peptide phosphorylation assay.

For orientation: inhibition means how much of the control response was suppressed.

Sequence of Fibroblast growth factor receptor 4 (Homo sapiens) (P22455 22-802 limits assumed): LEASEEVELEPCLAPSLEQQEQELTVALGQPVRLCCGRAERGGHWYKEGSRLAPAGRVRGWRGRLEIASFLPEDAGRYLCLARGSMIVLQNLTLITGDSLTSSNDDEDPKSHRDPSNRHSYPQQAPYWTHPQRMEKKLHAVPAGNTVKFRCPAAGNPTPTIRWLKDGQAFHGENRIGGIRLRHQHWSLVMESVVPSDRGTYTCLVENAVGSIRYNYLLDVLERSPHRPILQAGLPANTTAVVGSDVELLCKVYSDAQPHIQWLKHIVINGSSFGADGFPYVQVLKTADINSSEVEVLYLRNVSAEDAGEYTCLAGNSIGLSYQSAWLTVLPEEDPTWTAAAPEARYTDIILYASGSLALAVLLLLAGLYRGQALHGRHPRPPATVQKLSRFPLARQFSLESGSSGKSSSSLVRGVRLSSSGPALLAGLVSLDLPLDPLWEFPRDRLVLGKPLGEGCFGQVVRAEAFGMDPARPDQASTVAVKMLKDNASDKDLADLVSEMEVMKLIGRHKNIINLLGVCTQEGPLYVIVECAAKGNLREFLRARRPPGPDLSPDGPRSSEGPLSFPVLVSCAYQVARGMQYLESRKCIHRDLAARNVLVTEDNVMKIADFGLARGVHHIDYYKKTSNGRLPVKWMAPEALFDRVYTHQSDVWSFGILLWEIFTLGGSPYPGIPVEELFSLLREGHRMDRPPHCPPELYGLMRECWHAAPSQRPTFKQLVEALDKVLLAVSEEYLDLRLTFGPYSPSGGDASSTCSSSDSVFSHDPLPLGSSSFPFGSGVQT
Sequence of Ribosomal protein S6 kinase alpha-1 (Homo sapiens) (Q15418 whole entry): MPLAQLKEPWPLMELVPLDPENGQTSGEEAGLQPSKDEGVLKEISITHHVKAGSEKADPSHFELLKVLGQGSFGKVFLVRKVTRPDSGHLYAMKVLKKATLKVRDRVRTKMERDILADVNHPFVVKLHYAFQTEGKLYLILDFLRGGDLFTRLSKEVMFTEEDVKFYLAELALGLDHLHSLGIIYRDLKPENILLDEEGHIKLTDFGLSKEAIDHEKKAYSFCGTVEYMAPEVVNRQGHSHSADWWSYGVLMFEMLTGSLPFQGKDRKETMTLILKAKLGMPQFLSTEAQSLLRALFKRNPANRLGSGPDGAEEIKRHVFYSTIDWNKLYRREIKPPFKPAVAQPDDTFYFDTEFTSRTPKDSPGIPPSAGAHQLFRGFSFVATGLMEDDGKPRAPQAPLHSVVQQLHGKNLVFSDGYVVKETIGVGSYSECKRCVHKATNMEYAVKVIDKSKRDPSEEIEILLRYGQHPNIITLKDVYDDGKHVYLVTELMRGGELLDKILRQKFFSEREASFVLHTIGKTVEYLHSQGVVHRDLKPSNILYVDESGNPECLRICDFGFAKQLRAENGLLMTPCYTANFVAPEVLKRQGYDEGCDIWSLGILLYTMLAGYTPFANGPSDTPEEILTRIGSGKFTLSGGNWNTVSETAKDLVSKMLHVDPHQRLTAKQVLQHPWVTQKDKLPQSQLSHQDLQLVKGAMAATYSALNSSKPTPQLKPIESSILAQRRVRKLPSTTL
Sequence of Tyrosine-protein kinase BTK (Homo sapiens) (Q06187 whole entry): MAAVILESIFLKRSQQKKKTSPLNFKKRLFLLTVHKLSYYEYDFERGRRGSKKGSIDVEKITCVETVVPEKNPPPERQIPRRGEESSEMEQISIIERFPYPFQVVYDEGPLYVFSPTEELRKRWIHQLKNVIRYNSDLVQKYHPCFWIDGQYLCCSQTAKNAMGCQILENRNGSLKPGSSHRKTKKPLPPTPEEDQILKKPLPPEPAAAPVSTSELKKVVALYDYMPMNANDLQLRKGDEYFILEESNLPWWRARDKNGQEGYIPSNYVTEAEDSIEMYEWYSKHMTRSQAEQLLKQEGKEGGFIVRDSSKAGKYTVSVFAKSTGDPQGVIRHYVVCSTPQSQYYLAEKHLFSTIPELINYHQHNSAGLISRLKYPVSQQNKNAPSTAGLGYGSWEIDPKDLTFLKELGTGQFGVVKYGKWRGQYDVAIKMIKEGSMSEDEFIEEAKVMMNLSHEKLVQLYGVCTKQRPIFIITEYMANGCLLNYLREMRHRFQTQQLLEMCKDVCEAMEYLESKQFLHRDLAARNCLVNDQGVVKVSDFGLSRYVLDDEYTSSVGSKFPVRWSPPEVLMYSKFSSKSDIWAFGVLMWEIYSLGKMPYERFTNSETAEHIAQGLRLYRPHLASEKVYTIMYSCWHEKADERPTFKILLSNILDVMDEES
Sequence of Receptor-type tyrosine-protein kinase FLT3 (Homo sapiens) (P36888 whole entry, the tested form may be a part): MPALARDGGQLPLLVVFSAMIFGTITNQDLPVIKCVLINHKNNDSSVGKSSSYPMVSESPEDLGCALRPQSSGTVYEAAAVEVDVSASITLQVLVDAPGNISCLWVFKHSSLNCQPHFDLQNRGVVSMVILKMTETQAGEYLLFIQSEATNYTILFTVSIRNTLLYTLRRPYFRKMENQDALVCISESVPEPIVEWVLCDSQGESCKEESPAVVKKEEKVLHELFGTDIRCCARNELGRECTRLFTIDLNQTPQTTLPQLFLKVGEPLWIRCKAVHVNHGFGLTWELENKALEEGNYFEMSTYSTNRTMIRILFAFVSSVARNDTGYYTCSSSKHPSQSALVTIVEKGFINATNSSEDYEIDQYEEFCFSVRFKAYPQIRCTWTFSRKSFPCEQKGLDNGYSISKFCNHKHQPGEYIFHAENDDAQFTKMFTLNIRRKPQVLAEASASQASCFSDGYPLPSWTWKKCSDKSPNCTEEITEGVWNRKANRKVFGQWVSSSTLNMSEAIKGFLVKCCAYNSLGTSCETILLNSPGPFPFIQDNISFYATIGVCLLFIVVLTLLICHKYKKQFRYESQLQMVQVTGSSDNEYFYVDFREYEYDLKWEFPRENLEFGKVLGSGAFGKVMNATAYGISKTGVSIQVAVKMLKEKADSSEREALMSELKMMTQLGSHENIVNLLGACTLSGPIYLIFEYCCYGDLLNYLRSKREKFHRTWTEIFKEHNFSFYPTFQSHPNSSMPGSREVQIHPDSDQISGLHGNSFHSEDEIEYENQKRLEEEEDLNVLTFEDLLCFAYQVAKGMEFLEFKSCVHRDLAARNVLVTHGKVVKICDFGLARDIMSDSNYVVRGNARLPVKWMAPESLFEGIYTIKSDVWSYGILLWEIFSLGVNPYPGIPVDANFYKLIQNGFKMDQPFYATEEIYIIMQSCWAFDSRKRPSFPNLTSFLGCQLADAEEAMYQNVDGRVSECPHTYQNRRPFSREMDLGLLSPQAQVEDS
Sequence of Protein kinase C theta type (Homo sapiens) (Q04759 whole entry, looked up, the tested form may be a part): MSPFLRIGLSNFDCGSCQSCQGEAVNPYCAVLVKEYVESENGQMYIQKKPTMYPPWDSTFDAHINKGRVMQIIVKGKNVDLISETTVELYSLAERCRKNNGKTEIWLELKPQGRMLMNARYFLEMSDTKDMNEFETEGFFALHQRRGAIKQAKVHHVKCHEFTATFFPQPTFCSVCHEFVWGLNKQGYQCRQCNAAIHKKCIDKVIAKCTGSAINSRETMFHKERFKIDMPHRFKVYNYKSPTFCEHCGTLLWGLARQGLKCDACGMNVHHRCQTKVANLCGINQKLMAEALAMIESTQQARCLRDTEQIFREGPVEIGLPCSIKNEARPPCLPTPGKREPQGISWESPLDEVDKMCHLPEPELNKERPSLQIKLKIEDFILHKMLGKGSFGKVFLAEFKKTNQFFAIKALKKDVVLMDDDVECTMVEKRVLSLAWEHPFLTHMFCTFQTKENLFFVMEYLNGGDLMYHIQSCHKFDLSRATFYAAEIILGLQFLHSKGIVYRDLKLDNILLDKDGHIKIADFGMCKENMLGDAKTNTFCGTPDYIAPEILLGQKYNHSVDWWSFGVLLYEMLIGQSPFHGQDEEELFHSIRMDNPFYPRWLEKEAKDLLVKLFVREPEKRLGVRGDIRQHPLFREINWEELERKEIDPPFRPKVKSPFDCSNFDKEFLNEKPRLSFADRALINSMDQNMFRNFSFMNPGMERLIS
Sequence of Ribosomal protein S6 kinase alpha-3 (Homo sapiens) (P51812 whole entry): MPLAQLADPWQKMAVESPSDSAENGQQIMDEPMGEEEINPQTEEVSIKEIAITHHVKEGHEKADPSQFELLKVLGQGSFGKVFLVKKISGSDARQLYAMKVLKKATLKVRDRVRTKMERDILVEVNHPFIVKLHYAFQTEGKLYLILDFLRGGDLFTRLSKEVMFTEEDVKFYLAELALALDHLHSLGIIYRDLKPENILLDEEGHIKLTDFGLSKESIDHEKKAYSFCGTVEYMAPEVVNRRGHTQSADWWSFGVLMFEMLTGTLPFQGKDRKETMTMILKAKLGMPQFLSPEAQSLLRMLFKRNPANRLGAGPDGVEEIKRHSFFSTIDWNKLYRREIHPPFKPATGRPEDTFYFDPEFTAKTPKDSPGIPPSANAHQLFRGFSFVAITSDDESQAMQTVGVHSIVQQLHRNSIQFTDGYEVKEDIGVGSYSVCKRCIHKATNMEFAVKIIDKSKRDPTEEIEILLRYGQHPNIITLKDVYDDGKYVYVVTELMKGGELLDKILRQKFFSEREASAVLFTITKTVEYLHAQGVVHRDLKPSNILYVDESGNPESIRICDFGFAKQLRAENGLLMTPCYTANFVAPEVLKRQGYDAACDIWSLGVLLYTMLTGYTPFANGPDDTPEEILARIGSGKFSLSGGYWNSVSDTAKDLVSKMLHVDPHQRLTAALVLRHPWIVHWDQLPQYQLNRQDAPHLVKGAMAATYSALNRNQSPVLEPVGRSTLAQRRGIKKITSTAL

Consider `Clc1ccc(C2(c3ccc(-c4ncnc5[nH]cnc45)cc3)CCNCC2)cc1`, for which the inhibition in assay [1] is 46%.
In the case of `C[C@H](CN(C)C)Oc1nc(Nc2cc3cccc(Cl)c3cn2)cnc1C#N`, the inhibition in [2] was 5%.
On to `c1nc(N2CCOCC2)c2nc[nH]c2n1`, for which the inhibition in assay [3] turned out to be 98%.
Take `NCCc1ccc(-c2ncnc3[nH]cnc23)cc1`: the inhibition in assay [4] was determined as 76%.
For `NCC1CN(c2ncnc3[nH]c4cnccc4c23)CCO1` (stereo unspecified), in assay [5], the inhibition came out at 89.5%.
Turning to `COC(=O)c1cnc(Nc2cnc(C#N)cn2)cc1NCC1CCNCC1`, the inhibition in [6] amounted to 1.5%.
Regarding `c1cnc2[nH]ccc2c1`, the inhibition in [7] amounted to 19%; in assay [8], 60.5%.
In the case of `NC1(Cc2ccc(Cl)cc2)CCN(c2ncnc3[nH]ccc23)CC1`, in assay [9], the inhibition came out at 0.5%.
With `NC1CCN(c2ncnc3[nH]ccc23)CC1`, in [10], the inhibition was determined as 2.5%.
Consider `CNCc1ccc(-c2ncnc3[nH]cnc23)cc1`, for which the inhibition in [11] came out at 29.5%.
